Article PMC6929706, “In vivo alpha-V beta-3 integrin expression in human aortic atherosclerosis” (Heart, 2019)
Read-outs that look alike come from different tables or passages of the source. One block for each substance: values may come before it.

Key:
αvβ3 integrin receptors = target: T1, αvβ3 integrin receptors (Homo sapiens, UniProt P05106+P06756); experiment: 18F-fluciclatide autoradiography of carotid endarterectomy sections; type: binding
T1 construct: from tissue; host or cells: human carotid endarterectomy specimens (frozen sections)
Description: Carotid endarterectomy specimens (online supplementary data) were fresh frozen and sectioned in cryosection medium. Both atheromatous and non-atheromatous segments were fixed, stained with H&E and examined by immunohistochemistry for smooth muscle actin, CD31, CD68 and αvβ3 integrin receptor expression before digital image capture (Axioscan .Z1, Zeiss, UK). Image analysis was performed on ImageJ32 software (National Institutes of Health, Bethesda, Maryland, USA). Staining was expressed as a percentage of the total plaque area and with an object size set threshold applied at 20×10 pixels, to limit counting to cell-sized objects. The density of cell staining in the endarterectomy tissue was expressed as cells per mm^2.[18]
Autoradiography was performed to identify the precise localisation of 18F-fluciclatide binding in atherosclerotic tissue. Carotid sections were bathed in a solution of 18F-fluciclatide (1 kBq/mL) for 60 min and rinsed with phosphate buffer solution. To rule out non-specific radiotracer uptake, an un-labelled highly concentrated solution of fluciclatide was added to bind competitively with the αvβ3 integrin receptors. 18F-Fluciclatide binding was imaged using a FujiFilm FLA-5100 Fluorescent Image Analyser (Raytek Scientific, Sheffield, UK). […]
antibody, clone LM609 (Millipore) for 30 min at room temperature. After washing, the sections were incubated with Envision Flex (DAKO, K5007) for 30 min at room temperature, followed by incubation with diaminobenzamine (Sigma) for 10 min. The slides were finally counterstained with hematoxylin and digitally imaged (Axioscan.Z1, Zeiss, UK).
Clinical PET systems have limited resolution. To gain more detailed information about the precise localization of 18F-fluciclatide binding in atherosclerotic tissue, we undertook autoradiography. The 20 μm frozen sections adjacent to those used for immunohistochemical analysis were warmed to room-temperature and bathed in a solution of 18F-fluciclatide at a concentration close to in vivo imaging concentrations (1 kBq/mL) for 60 minutes and then rinsed with phosphate buffer solution. An unlabeled highly concentrated solution of fluciclatide was added to selected slides in order to competitively bind to αvβ3 to assess for non-specific tracer uptake. A freshly blanked phosphor screen was then placed over the slides and an overnight exposure undertaken. The screen was read using a FujiFilm FLA-5100 Fluorescent Image Analyser (Raytek Scientific Limited, Sheffield, UK). Sections were then manually registered and examined for co-localization with histological markers of atherosclerotic disease

[1] = design: species or system human; details: in vivo
From the text: A total of 46 subjects underwent PET imaging with CT angiography (age 66±10 years, 74% male; table 1) following injection of 229 (IQR 217–237) […] 18F-fluciclatide. Of the 46 subjects recruited, 19 had suffered a recent MI (unstable cohort), and 27 had imaging evidence of aortic atherosclerosis on CT but no recent cardiovascular events (stable cohort: 6 with stable angina and 21 with subclinical disease who were asymptomatic with no prior cardiovascular events). […] The groups were well matched for gender (p=0.97) and body mass index (p=0.39), and were both characterised by high prevalence of atherosclerotic risk factors, with more smokers in the unstable group (p<0.001) and more patients with hypertension in the stable group (p=0.02).

[2] = target: αvβ3 integrin in thoracic aortic atheroma (Homo sapiens, UniProt P05106+P06756)
Description: (§1) All patients in the imaging cohort underwent PET-CT imaging of the thorax with a hybrid scanner (Biograph mCT, Siemens Medical Systems, Erlangen, Germany) at the Clinical Research Imaging Centre, University of Edinburgh. Subjects were administered a target dose of 230 MBq 18F-fluciclatide. An attenuation correction CT scan (non-enhanced 120 kV and 50 mA, 3 mm slices) was performed prior to PET acquisition. To define tracer pharmacodynamics and the optimum timing of scanning, dynamic PET imaging of the thorax was performed in the initial 20 patients in three-dimensional (3-D) mode using a single bed position for 70 min.
Kinetic analysis was performed on the dynamic PET studies to investigate the pharmacodynamics of 18F-fluciclatide uptake within atheroma. […] In all patients, static electrocardiogram-gated PET images were reconstructed in diastole (40–70 min postinjection, 50%–75% of the R-R interval, Ultra-HD, 2 iterations, 21 subsets, zoom ×2, 200 pixels). […] PET images were fused with the attenuation correction CT, and regions of interest drawn around the thoracic aorta on serial axial slices just beyond the discernible adventitial border. Aortic uptake was assessed in three regions: the ascending thoracic aorta (from the level of mid-right pulmonary artery up to the last slice where the aorta maintained its circular cross-sectional appearance), the descending thoracic aorta (the region extending from the tip of the diaphragm up to the last circular slice) and the aortic arch (the region of the aorta connecting the ascending and descending aorta). Within these regions, mean and maximum tracer activities were measured using standard uptake values (SUV; the decay corrected tissue concentration of the tracer divided by the injected dose per body weight, kBq/mL) and corrected for mean radiotracer blood pool activity to provide a mean of the TBRmax (mean TBRmax).[5 19 20] […] In a substudy of 10 randomly selected subjects, images were assessed independently by two experienced observers and the interobserver reproducibility of 18F-fluciclatide SUV and TBR measurements assessed.
Continuous data were tested for normality visually and with the D’Agostino-Pearson omnibus test. Continuous data were presented as median (IQR) and compared using Pearson’s or Spearman’s correlation or Wilcoxon signed-rank test as appropriate.

[3] = target: aortic atheroma (αvβ3 integrin) (Homo sapiens, UniProt P05106+P06756)
aortic atheroma (αvβ3 integrin), sequence (P06756 31-889 limits assumed): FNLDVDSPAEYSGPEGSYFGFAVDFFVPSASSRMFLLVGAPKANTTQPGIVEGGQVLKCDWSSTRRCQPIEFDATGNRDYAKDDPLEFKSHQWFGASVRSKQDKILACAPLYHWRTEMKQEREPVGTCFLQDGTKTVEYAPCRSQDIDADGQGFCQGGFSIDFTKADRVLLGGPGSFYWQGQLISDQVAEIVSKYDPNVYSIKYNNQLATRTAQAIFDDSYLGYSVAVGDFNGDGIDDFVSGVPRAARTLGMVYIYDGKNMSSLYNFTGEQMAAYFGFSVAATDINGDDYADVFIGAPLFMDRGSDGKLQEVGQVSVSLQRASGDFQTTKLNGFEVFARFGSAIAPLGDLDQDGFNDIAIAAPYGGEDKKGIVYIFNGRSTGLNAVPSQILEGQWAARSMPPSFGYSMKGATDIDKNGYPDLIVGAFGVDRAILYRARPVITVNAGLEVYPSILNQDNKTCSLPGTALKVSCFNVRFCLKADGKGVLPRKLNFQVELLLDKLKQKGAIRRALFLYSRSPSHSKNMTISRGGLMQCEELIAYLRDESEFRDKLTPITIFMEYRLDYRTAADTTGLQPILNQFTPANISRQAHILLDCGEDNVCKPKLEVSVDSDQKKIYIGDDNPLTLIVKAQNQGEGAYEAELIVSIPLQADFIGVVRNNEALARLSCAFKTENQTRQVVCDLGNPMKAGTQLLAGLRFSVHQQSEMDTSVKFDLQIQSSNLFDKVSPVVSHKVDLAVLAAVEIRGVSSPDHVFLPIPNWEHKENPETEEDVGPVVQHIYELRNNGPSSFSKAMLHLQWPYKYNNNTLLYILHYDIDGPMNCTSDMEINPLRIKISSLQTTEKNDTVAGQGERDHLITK
aortic atheroma (αvβ3 integrin), sequence (P06756 891-1048 partner limits assumed): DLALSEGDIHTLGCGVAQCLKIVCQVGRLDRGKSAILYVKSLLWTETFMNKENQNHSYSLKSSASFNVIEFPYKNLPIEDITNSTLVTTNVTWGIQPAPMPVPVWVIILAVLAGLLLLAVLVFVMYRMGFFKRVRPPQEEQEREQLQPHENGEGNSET
aortic atheroma (αvβ3 integrin), sequence (P05106 27-788): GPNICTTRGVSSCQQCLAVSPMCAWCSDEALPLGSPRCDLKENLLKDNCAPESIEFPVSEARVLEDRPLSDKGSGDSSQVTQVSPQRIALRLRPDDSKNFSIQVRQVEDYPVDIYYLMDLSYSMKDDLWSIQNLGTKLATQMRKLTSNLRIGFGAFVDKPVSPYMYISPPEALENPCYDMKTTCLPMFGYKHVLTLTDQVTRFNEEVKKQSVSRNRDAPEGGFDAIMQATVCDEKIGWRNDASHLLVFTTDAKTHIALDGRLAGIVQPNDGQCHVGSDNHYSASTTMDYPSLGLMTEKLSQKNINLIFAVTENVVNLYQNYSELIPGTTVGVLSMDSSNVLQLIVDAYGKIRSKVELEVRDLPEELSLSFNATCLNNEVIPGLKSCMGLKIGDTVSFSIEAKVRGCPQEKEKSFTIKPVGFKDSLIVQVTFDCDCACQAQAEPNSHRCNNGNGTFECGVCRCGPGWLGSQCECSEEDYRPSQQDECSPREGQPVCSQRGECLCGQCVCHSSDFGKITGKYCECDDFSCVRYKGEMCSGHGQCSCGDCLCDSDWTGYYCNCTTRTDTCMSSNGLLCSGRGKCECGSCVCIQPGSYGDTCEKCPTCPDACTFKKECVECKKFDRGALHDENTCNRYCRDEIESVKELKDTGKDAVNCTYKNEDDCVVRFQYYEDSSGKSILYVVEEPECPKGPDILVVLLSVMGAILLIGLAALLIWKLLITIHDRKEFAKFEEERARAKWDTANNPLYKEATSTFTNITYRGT
Description: as §1
Kinetic analysis was performed on the dynamic PET studies to investigate the pharmacodynamics of 18F-fluciclatide uptake within atheroma. […] In all patients, static electrocardiogram-gated PET images were reconstructed in diastole (40–70 min postinjection, 50%–75% of the R-R interval, Ultra-HD, 2 iterations, 21 subsets, zoom ×2, 200 pixels). Images were analysed by experienced observers blinded to the demographic data (WJ, AV) using an OsiriX workstation (OsiriX V.6.0 64-bit; OsiriX Imaging Software, Geneva, Switzerland). PET images were fused with the attenuation correction CT, and regions of interest drawn around the thoracic aorta on serial axial slices just beyond the discernible adventitial border. Aortic uptake was assessed in three regions: the ascending thoracic aorta (from the level of mid-right pulmonary artery up to the last slice where the aorta maintained its circular cross-sectional appearance), the descending thoracic aorta (the region extending from the tip of the diaphragm up to the last circular slice) and the aortic arch (the region of the aorta connecting the ascending and descending aorta). Within these regions, mean and maximum tracer activities were measured using standard uptake values (SUV; the decay corrected tissue concentration of the tracer divided by the injected dose per body weight, kBq/mL) and corrected for mean radiotracer blood pool activity to provide a mean of the TBRmax (mean TBRmax).[5 19 20] […]

αvβ3 integrin in thoracic aortic atheroma, sequence (P06756 31-889 limits assumed): as the sequence (P06756 31-889 limits assumed) above
αvβ3 integrin in thoracic aortic atheroma, sequence (P06756 891-1048 partner limits assumed): as the sequence (P06756 891-1048 partner limits assumed) above
αvβ3 integrin in thoracic aortic atheroma, sequence (P05106 27-788): as the sequence (P05106 27-788) above
T1 sequence (P06756 31-889 limits assumed): as the sequence (P06756 31-889 limits assumed) above
T1 sequence (P06756 891-1048 partner limits assumed): as the sequence (P06756 891-1048 partner limits assumed) above
T1 sequence (P05106 27-788): as the sequence (P05106 27-788) above

Non-specific binding on autoradiography (αvβ3 integrin receptors; carotid atheroma, ex vivo): no evidence of non-specific binding
Average total radiation dose per participant [1]: 15 mSv
TBRmax range in aortic atheroma ([2]; 40–70 min postinjection): 1.08–1.68
Total aortic uptake (mean TBRmax), current smokers ([2]; All patients, median (IQR)): 1.32
Total aortic uptake (mean TBRmax), not current smokers ([2]; All patients, median (IQR)): 1.29 (1.19–1.39)
Total aortic uptake (mean TBRmax), with established ischaemic heart disease ([2]; All patients, median (IQR)): 1.34 (1.22–1.42)
Total aortic uptake (mean TBRmax), with hypercholesterolaemia ([2]; All patients, median (IQR)): 1.34 (1.21–1.42)
Total aortic uptake (mean TBRmax), with hypertension ([2]; All patients, median (IQR)): 1.33 (1.19–1.39)
Total aortic uptake (mean TBRmax), without diabetes mellitus ([2]; All patients, median (IQR)): 1.29 (1.19–1.38)
Total aortic uptake (mean TBRmax), without established ischaemic heart disease ([2]; All patients, median (IQR)): 1.25 (1.19–1.35)
Total aortic uptake (mean TBRmax), without hypercholesterolaemia ([2]; All patients, median (IQR)): 1.27 (1.19–1.34)
Total aortic uptake (mean TBRmax), without hypertension ([2]; All patients, median (IQR)): 1.29 (1.20–1.40)
Total aortic uptake (mean TBRmax), with diabetes mellitus ([2]; Stable cohort, median (IQR)): 1.37 (1.28–1.58)
Total aortic uptake (mean TBRmax), with established ischaemic heart disease ([2]; Stable cohort, median (IQR)): 1.37 (1.37–1.42)
Total aortic uptake (mean TBRmax), with hypercholesterolaemia ([2]; Stable cohort, median (IQR)): 1.36
Total aortic uptake (mean TBRmax), with hypertension ([2]; Stable cohort, median (IQR)): 1.27 (1.21–1.38)
Total aortic uptake (mean TBRmax), without diabetes mellitus ([2]; Stable cohort, median (IQR)): 1.29 (1.19–1.37)
Total aortic uptake (mean TBRmax), without hypertension ([2]; Stable cohort, median (IQR)): 1.33 (1.19–1.38)
Aortic Arch (mean TBRmax) ([2]; Unstable atherosclerosis (n=19, recent MI), median (IQR)): 1.29
TBRmax on standard analysis, subjects without visible uptake on Patlak analysis ([2]; comparison p=0.08): 1.19±0.03
TBRmax on standard analysis, subjects with uptake present on Patlak analysis ([2]; n=7): 1.32±0.05
Nature of ligand-receptor binding by Patlak modelling ([3]; 2-tissue irreversible Patlak model, t* 20 min, over the selected acquisition time): irreversible ligand-receptor binding
Blood pool clearance half-life ([3]; human, in vivo, iv): about 10 min
Time at which activity within aortic atheroma reaches plateau ([3]; in vivo): 40 to 70 min
Substance: 18F-fluciclatide
18F-fluciclatide uptake in regions of carotid endarterectomy specimen without visible atheroma (αvβ3 integrin receptors; ex vivo autoradiography, 1 kBq/mL, 60 min): did not demonstrate 18F-fluciclatide uptake
18F-fluciclatide binding in carotid plaque on autoradiography (αvβ3 integrin receptors; ex vivo carotid sections bathed in 1 kBq/mL for 60 min, atheromatous regions): focal 18F-fluciclatide binding in regions of advanced atherosclerosis
Adverse events following administration [1]: No adverse events were reported

Blocking of 18F-fluciclatide binding by un-labelled fluciclatide (αvβ3 integrin receptors; un-labelled highly concentrated solution added to compete at αvβ3): effectively blocked
Substance: fluciclatide [reference compound]
